From PMC7619001, “Structural Basis of Bifunctional CTP/dCTP Synthase” (Journal of molecular biology, 2024)

How the values were obtained:
CTP synthase (CTPS) [1] = molecular target: T1, CTP synthase (CTPS) (Drosophila melanogaster, UniProt Q9VUL1); assay: cryo-EM structure ([…] Å), reaction intermediate; format: binding
T1 construct: full-length, C-terminal 6xHis-tag
T1 sequence (Q9VUL1 1-627): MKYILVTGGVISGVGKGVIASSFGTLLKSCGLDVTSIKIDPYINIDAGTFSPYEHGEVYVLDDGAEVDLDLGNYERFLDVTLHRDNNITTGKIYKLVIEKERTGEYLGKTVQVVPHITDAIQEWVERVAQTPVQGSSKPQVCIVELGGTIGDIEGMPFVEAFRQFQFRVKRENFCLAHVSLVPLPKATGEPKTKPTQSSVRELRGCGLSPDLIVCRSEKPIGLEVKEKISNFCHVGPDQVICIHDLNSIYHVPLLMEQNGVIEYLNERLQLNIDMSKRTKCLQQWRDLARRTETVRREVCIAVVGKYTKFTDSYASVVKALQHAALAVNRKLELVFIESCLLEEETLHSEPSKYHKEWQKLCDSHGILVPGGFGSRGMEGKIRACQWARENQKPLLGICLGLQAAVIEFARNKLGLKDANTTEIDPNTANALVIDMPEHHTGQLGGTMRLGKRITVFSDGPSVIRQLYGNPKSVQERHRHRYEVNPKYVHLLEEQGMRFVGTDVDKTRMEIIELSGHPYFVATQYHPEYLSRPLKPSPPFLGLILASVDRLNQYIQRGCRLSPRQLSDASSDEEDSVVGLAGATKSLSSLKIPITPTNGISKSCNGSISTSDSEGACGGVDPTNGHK

CTP synthase (CTPS) [2] = molecular target: T1, CTP synthase (CTPS); assay: cryo-EM structure ([…] Å); format: binding
CTP synthase (CTPS) [3] = molecular target: T1, CTP synthase (CTPS); assay: enzyme kinetics at […] nm, Hill fit (KA […]); format: biochemical
CTP synthase (CTPS) [4] = molecular target: T1, CTP synthase (CTPS); assay: activation kinetics (KA = dissociation constant of the E·GTP complex); format: biochemical
CTP synthase (CTPS) [5] = molecular target: T1, CTP synthase (CTPS); assay: cryo-EM structure; activation kinetics (KA = dissociation constant of the enzyme-regulator complex); format: biochemical
Text: cryo-EM structure; activation kinetics (KA = dissociation constant of the enzyme-regulator complex) on CTP synthase (CTPS) | we observed a clear electron density of dGTP

CTP synthase (CTPS) [6] = molecular target: T1, CTP synthase (CTPS); assay: enzyme kinetics at […] nm, Hill fit (KA […]); format: biochemical; remark: listed apart in the source
CTP synthase (CTPS) [7] = molecular target: T1, CTP synthase (CTPS); assay: enzyme kinetics at […] nm, Hill fit (KA […]); format: biochemical; remark: listed apart in the source
CTP synthase (CTPS) [8] = molecular target: T1, CTP synthase (CTPS); assay: enzyme kinetics at […] nm, Hill fit (KA […]); format: biochemical; remark: listed apart in the source
CTP synthase (CTPS) [9] = molecular target: T1, CTP synthase (CTPS); assay: enzyme activity abolished at […]; filament formation by negative-stain EM; format: biochemical

O=c1nc(OP(=O)(O)O)ccn1[C@H]1C[C@H](O)[C@@H](COP(=O)(O)OP(=O)(O)OP(=O)(O)O)O1 [4Pi-dUTP]
cryo-EM structure (2.7 Å), reaction intermediate (CTP synthase (CTPS) [1]): our electron density map shows that dUTP has been catalyzed by CTPS to 4Pi-dUTP and stabilized through various interactions

Nc1ncnc2c1ncn2[C@H]1C[C@H](O)[C@@H](COP(=O)(O)OP(=O)(O)O)O1 [dADP]
cryo-EM structure (2.7 Å) (CTP synthase (CTPS) [2]): dATP has been converted to dADP by CTPS

Nc1ncnc2c1ncn2[C@@H]1O[C@H](COP(=O)(O)OP(=O)(O)OP(=O)(O)O)[C@@H](O)[C@H]1O [ATP]
Kd (CTP synthase (CTPS) [3]): 60 µM

Nc1nc2c(ncn2[C@@H]2O[C@H](COP(=O)(O)OP(=O)(O)OP(=O)(O)O)[C@@H](O)[C@H]2O)c(=O)[nH]1 [GTP]
Kd (CTP synthase (CTPS) [4]): 51.2 µM

Nc1nc2c(ncn2[C@H]2C[C@H](O)[C@@H](COP(=O)(O)OP(=O)(O)OP(=O)(O)O)O2)c(=O)[nH]1 [dGTP]
Kd (CTP synthase (CTPS) [5]): 523 ± 312 µM

O=c1ccn([C@H]2C[C@H](O)[C@@H](COP(=O)(O)OP(=O)(O)OP(=O)(O)O)O2)c(=O)[nH]1 [dUTP]
Kd (CTP synthase (CTPS) [6]): 280 ± 70 µM

O=c1ccn([C@@H]2O[C@H](COP(=O)(O)OP(=O)(O)OP(=O)(O)O)[C@@H](O)[C@H]2O)c(=O)[nH]1 [UTP]
Kd (CTP synthase (CTPS) [7]): 50 ± 40 µM

Nc1ncnc2c1ncn2[C@H]1C[C@H](O)[C@@H](COP(=O)(O)OP(=O)(O)OP(=O)(O)O)O1 [dATP]
Kd (CTP synthase (CTPS) [8]): 160 ± 80 µM

[N-]=[N+]=CC(=O)CC[C@H](N)C(=O)O [DON, 6-diazo-L-noreleucine]
cryo-EM structure (2.7 Å) (CTP synthase (CTPS) [2]): The electron density of the covalent inhibitor DON was observed in the binding pocket of the GAT domain

Nc1ccn([C@H]2C[C@H](O)[C@@H](COP(=O)(O)OP(=O)(O)OP(=O)(O)O)O2)c(=O)n1 [dCTP]
enzyme activity abolished at 1 mM; filament formation by negative-stain EM (CTP synthase (CTPS) [9]): This indicates that both CTP and dCTP have strong inhibition effects on CTPS activity.
